28 compounds from US11505547B2, “Compounds” (STEP PHARMA S.A.S., priority 2017, dated 2022) can be followed below.

This experiment addresses T1, human CTPS1 (Homo sapiens, UniProt P17812).
T1 construct: purchased Proteros biostructures GmbH
T1 sequence (P17812 1-591): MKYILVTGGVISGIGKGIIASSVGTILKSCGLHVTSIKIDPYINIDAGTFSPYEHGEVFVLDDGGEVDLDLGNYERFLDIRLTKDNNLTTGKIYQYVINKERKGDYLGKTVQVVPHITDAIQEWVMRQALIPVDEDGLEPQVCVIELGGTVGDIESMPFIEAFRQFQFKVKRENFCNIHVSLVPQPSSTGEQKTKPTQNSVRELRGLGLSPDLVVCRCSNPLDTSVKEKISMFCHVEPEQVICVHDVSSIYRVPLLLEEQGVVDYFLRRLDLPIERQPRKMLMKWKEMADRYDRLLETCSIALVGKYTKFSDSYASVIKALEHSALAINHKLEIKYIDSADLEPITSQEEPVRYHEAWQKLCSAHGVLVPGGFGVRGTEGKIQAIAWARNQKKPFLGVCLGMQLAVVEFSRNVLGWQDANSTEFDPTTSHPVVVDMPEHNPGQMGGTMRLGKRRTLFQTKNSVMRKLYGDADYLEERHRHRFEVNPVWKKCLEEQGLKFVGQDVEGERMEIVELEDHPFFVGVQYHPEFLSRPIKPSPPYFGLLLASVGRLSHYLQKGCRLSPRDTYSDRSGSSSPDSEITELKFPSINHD
Nature of the experiment: Human CTPS1 enzyme inhibition, ADP-Glo Max assay. Type of experiment: biochemical. The conditions noted are these: human full length CTPS1, read-out: CTPS1 (Human CTPS1 Enzyme Inhibition data grouped by potency range, IC50). On the procedure: Biological Example 1—Human CTPS1 Enzyme Inhibition
The enzyme inhibitory activities of compounds invented against the target of interest were determined using the ADP-Glo™ Max assay (Promega, UK). Assays for human CTPS1 were performed in 1× assay buffer containing 50 mM Tris, 10 mM MgCl2, 0.01% Tween-20, pH to 8.0 accordingly. Finally, immediately before use, L-cysteine was added to the 1× assay buffer to a final concentration of 2 mM. All reagents are from Sigma-Aldrich unless specified otherwise. Human full length active C-terminal FLAG-Hiss-tag CTPS1 (UniProtKB-P17812, CTPS[1-591]-[…]) was obtained from Proteros biostructures GmbH.
3× human CTPS1 protein was prepared in 1× assay buffer to the final working protein concentration required for the reaction. A 2 uL volume per well of 3× human CTPS1 protein was mixed with 2 uL per well of 3× test compound (compound prepared in 1× assay buffer to an appropriate final 3× compound concentration respective to the concentration response curve designed for the compounds under test) for 10 minutes at 25° C. The enzymatic reaction was then initiated by addition of a 2 uL per well volume of a pre-mixed substrate mix (UltraPure ATP from ADP-Glo™ Max kit (0.31 mM), GTP (0.034 mM), UTP (0.48 mM) and L-glutamine (0.186 mM)) and the mixture was incubated for an appropriate amount of time within the determined linear phase of the reaction at 25° C. under sealed plate conditions with constant agitation at 500 revolutions per minute (rpm). ADP-GIo™ Max reagent was added for 60 minutes (6 uL per well) and subsequently ADP-Glo™ Max development reagent was added for 60 minutes (12 uL per well) prior to signal detection in a microplate reader (EnVision® Multilabel Reader, Perkin Elmer). Following each reagent addition over the course of the assay, assay plates were pulse centrifuged for 30 seconds at 500 rpm.
In all cases, the enzyme converts ATP to ADP and the ADP-Glo™ Max reagent subsequently depletes any remaining endogenous ATP in the reaction system. The ADP-Glo™ Max detection reagent converts the ADP that has been enzymatically produced back into ATP and using ATP as a substrate together with luciferin for the enzyme luciferase, light is generated which produces a detectable luminescence. […] The percentage inhibition produced by each concentration of compound was calculated using the equation shown below: […]
Percentage inhibition was then plotted against compound concentration, and the 50% inhibitory concentration (IC50) was determined from the resultant concentration-response curve.

As to `CCC(CC)(NC(=O)c1ccc(-c2cncc(C(F)(F)F)c2)cc1)c1csc(NS(=O)(=O)C2CC2)n1` [Example R15, N-(3-(2-(cyclopropanesulfonamido)thiazol-4-yl)pentan-3-yl)-4-(5-(trifluoromethyl)pyridin-3-yl)benzamide], the IC50 is less than 100 nM.
As for `CCC(CC)(NC(=O)c1ccc(-c2cncc(F)c2)cc1)c1csc(NS(=O)(=O)C2CC2)n1` [Example R16, N-(3-(2-(cyclopropanesulfonamido)thiazol-4-yl)pentan-3-yl)-4-(5-fluoropyridin-3-yl)benzamide], the IC50 was 100 to 1000 nM.
The same measure for `CCC(CC)(NC(=O)c1ccc(-c2cncc(C)c2)cc1)c1csc(NS(=O)(=O)C2CC2)n1` [Example R17, N-(3-(2-(cyclopropanesulfonamido)thiazol-4-yl)pentan-3-yl)-4-(5-methylpyridin-3-yl)benzamide]: 100 to 1000 nM; for `CCC(CC)(NC(=O)c1ccc(-c2cccnc2)cc1)c1csc(NS(=O)(=O)C2CC2)n1` [Example R18, N-(3-(2-(cyclopropanesulfonamido)thiazol-4-yl)pentan-3-yl)-4-(pyridin-3-yl)benzamide]: 100 to 1000 nM.
Regarding `CCC(CC)(NC(=O)c1ccc(-c2cncc(C(F)(F)F)n2)cc1)c1csc(NS(=O)(=O)C2CC2)n1` [Example R19, N-(3-(2-(cyclopropanesulfonamido)thiazol-4-yl)pentan-3-yl)-4-(6-(trifluoromethyl)pyrazin-2-yl)benzamide], the IC50 was less than 100 nM.
For `CCC(CC)(NC(=O)c1ccc(-c2cncc(Cl)n2)cc1)c1csc(NS(=O)(=O)C2CC2)n1` [Example R20, 4-(6-chloropyrazin-2-yl)-N-(3-(2-(cyclopropanesulfonamido)thiazol-4-yl)pentan-3-yl)benzamide], the IC50 is less than 100 nM.
To `CCC(CC)(NC(=O)c1ccc(-c2cncc(C)n2)cc1)c1csc(NS(=O)(=O)C2CC2)n1` [Example R21, N-(3-(2-(cyclopropanesulfonamido)thiazol-4-yl)pentan-3-yl)-4-(6-methylpyrazin-2-yl)benzamide] belongs less than 100 nM.
The same measure for `CCC(CC)(NC(=O)c1ccc(-c2cnccn2)cc1)c1csc(NS(=O)(=O)C2CC2)n1` [Example R22, N-(3-(2-(cyclopropanesulfonamido)thiazol-4-yl)pentan-3-yl)-4-(pyrazin-2-yl)benzamide]: 100 to 1000 nM; for `CCOc1cncc(-c2cnc(C(=O)NC(C)(C)c3csc(NS(=O)(=O)C4CC4)n3)c(F)c2)n1` [Example R23, N-(2-(2-(cyclopropanesuIfonamido)thiazol-4-yl)propan-2-yl)-5-(6-ethoxypyrazin-2-yl)-3-fluoropicolinamide]: 100 to 1000 nM; for `CC(C)(NC(=O)c1ccc(-c2cncc(C(F)(F)F)n2)cn1)c1csc(NS(=O)(=O)C2CC2)n1` [Example R24, N-(2-(2-(cyclopropanesulfonamido)thiazol-4-yl)propan-2-yl)-5-(6-(trifluoromethyl)pyrazin-2-yl)picolinamide]: 100 to 1000 nM.
The same measure for `CC(C)(NC(=O)c1ccc(-c2cncc(Cl)n2)cn1)c1csc(NS(=O)(=O)C2CC2)n1` [Example R25, 5-(6-chloropyrazin-2-yl)-N-(2-(2-(cyclopropanesulfonamido)thiazol-4-yl)propan-2-yl)picolinamide]: 100 to 1000 nM.
Turning to `CCOc1cncc(-c2ccc(C(=O)NC(C)(C)c3csc(NS(=O)(=O)C4CC4)n3)nc2)n1` [Example R26, N-(2-(2-(cyclopropanesulfonamido)thiazol-4-yl)propan-2-yl)-5-(6-ethoxypyrazin-2-yl)picolinamide], the IC50 lay within 100 to 1000 nM.
The same measure for `CC(C)(NC(=O)c1ccc(-c2ccccn2)nc1)c1csc(NS(=O)(=O)C2CC2)n1` [Example R27, N-(2-(2-(cyclopropanesuIfonamido)thiazol-4-yl)propan-2-yl)-[2,2′-bipyridine]-5-carboxamide]: 10000 to 21000 nM; for `CC(C)(NC(=O)c1ccc(-c2cncc(Cl)c2)cc1)c1csc(NS(=O)(=O)C2CC2)n1` [Example R28]: less than 100 nM; for `CC(C)(NC(=O)c1ccc(-c2cncc(C(F)(F)F)c2)cc1F)c1csc(NS(=O)(=O)C2CC2)n1` [Example R29]: less than 100 nM.
To `CC(C)(NC(=O)c1ccc(-c2cncc(Cl)c2)cc1F)c1csc(NS(=O)(=O)C2CC2)n1` [Example R30] belongs 100 to 1000 nM; to `CC(C)(NC(=O)c1ccc(-c2cncc(F)c2)cc1F)c1csc(NS(=O)(=O)C2CC2)n1` [Example R31], 100 to 1000 nM.
To `COc1cc(-c2cncc(C(F)(F)F)c2)ccc1C(=O)NC(C)(C)c1csc(NS(=O)(=O)C2CC2)n1` [Example R32] belongs 100 to 1000 nM; to `Cc1ncccc1-c1ccc(C(=O)NC(C)(C)c2csc(NS(=O)(=O)C3CC3)n2)cc1` [Example R33], 1000 to 10000 nM; to `CC(=O)c1cncc(-c2ccc(C(=O)NC(C)(C)c3csc(NS(=O)(=O)C4CC4)n3)cc2)c1` [Example R34], 1000 to 10000 nM.
On to `CC(C)(NC(=O)c1ccc(-c2cncc(C(F)(F)F)c2)cc1)c1csc(NS(=O)(=O)C2CC2)n1` [Example R35, N-(2-(2-(cyclopropanesulfonamido)thiazol-4-yl)propan-2-yl)-4-(5-(trifluoromethyl)pyridin-3-yl)benzamide], for which the IC50 is less than 100 nM.
To `CC(C)(NC(=O)c1ccc(-c2cncc(F)c2)cc1)c1csc(NS(=O)(=O)C2CC2)n1` [Example R36, N-(2-(2-(cyclopropanesulfonamido)thiazol-4-yl)propan-2-yl)-4-(5-fluoropyridin-3-yl)benzamide] belongs 100 to 1000 nM; to `Cc1cncc(-c2ccc(C(=O)NC(C)(C)c3csc(NS(=O)(=O)C4CC4)n3)cc2)c1` [Example R37, N-(2-(2-(cyclopropanesulfonamido)thiazol-4-yl)propan-2-yl)-4-(5-methylpyridin-3-yl)benzamide], less than 100 nM.
The same measure for `COc1cncc(-c2ccc(C(=O)NC(C)(C)c3csc(NS(=O)(=O)C4CC4)n3)cc2)c1` [Example R38, N-(2-(2-(cyclopropanesuIfonamido)thiazol-4-yl)propan-2-yl)-4-(5-methoxypyridin-3-yl)benzamide]: 100 to 1000 nM; for `CC(C)(NC(=O)c1ccc(-c2cccnc2)cc1)c1csc(NS(=O)(=O)C2CC2)n1` [Example R39, N-(2-(2-(cyclopropanesulfonamido)thiazol-4-yl)propan-2-yl)-4-(pyridin-3-yl)benzamide]: 100 to 1000 nM.
On to `CC(C)(NC(=O)c1ccc(-c2cccc(C(F)(F)F)c2)cc1)c1csc(NS(=O)(=O)C2CC2)n1` [Example R40, N-(2-(2-(cyclopropanesulfonamido)thiazol-4-yl)propan-2-yl)-3′-(trifluoromethyl)-[1,1′-biphenyl]-4-carboxamide], for which the 50% inhibitory concentration (IC50) lay within 100 to 1000 nM.
The same measure for `CCc1cncc(-c2ccc(C(=O)NC(C)(C)c3csc(NS(=O)(=O)C4CC4)n3)c(F)c2)n1` [Example R41, N-(2-(2-(cyclopropanesuIfonamido)thiazol-4-yl)propan-2-yl)-4-(6-ethylpyrazin-2-yl)-2-fluorobenzamide]: 100 to 1000 nM.
For the compound `CC(C)(NC(=O)c1ccc(-c2cncc(C(F)(F)F)n2)cc1F)c1csc(NS(=O)(=O)C2CC2)n1` [Example R42, N-(2-(2-(cyclopropanesuIfonamido)thiazol-4-yl)propan-2-yl)-2-fluoro-4-(6-(trifluoromethyl)pyrazin-2-yl)benzamide], the IC50 is less than 100 nM.
